≈ marks a conversion by molar mass, not a printed value.
Tests used:
[1] = Pharmacokinetic study in rat, intravenous 1 mg/kg; type: in vivo
Method: (§1) Each mice PK study consisted of nine male C57BL/6 mice per group with sparse sampling design (n=3 mice per time point). The animals from intravenous groups were dosed with solution formulation of compounds via tail vein at 1 mg/kg dose. Ten compounds were screened in mice and one compound (the compound of Formula IV) was dosed in rat (n=3; serial sampling) following intravenous dose administration at 1 mg/kg dose. The solution formulation for compounds was prepared in 5% v/v DMA, 25% v/v PEG-400, and 70% v/v HPBCD (30% w/v); 15% v/v DMA, 5% Solutol HS-15, and 80% 1:1 PEG-300: Normal saline (2.25%); or 10% v/v DMA, 25% PEG-400, and 65% HPBCD (30% w/v solution). The dosing volume was 1 and 5 mL/kg for intravenous dose in rat and mice respectively. Blood samples (approximately 60 μL from mice and 120 μL from rats) were collected under light isoflurane anesthesia from a set of three mice at 0, 0.08, 0.25, 0.5, 1, 2, 4, 8, 12, and 24 hours post-dose. Plasma was harvested by centrifugation of blood and stored at −70±10° C. until analysis. Fit-for purpose LC-MS/MS method was developed and samples were processed by protein precipitation method. Non-Compartmental-Analysis tool of Phoenix WinNonlinR (Version 8.0) was used to assess the pharmacokinetic parameters. The areas under the concentration time curve (AUClast and AUCinf) were calculated by linear trapezoidal rule. The terminal elimination rate constant, Ke was determined by regression analysis of the linear terminal portion of the log plasma concentration-time curve. The terminal half-life (T1/2) was estimated at 0.693/ke. CLIV=Dose/AUCinf; Vss=MRT×CLIV.

[2] = Compound stability in mouse liver microsomes; type: in vitro ADME; settings: 37° C.
Method: A microsomal mixture comprising mouse liver microsomes and a potassium phosphate buffer was prepared at a concentration of 1.428 mg/mL in 2 mL tubes. 1.6 μL of test compound or imipramine as a positive control was added to the mixture, and 70 μL was transferred to a 96 well plate and pre-incubated at 37° C. for 5 minutes. After pre-incubation, […] 30 μL of NADPH (3.33 mM in potassium phosphate buffer) was added. The reaction mixtures were incubated at 37° C. for 15 and 45 minutes. Reactions without NADPH and buffer controls (minus NADPH) were conducted to rule out non-NADPH metabolism and chemical instability in the incubation buffer. The reactions were quenched with 100 μL ice cold acetonitrile containing an internal standard. The plates were centrifuged at 4000 RPM for 15 minutes and 100 μL aliquots were analyzed for parent compound disappearance by LC-MS/MS. The peak area ratios of analyte versus internal standard were used to calculate the percent remaining at the end of 45 minutes.

[3] = Pharmacokinetic study in mice, intravenous 1 mg/kg; type: in vivo, C57BL/6 mice
Method: as §1

Solubility at pH 7.4 = type: physicochemical; settings: aqueous buffer, Table 1, 6-5 ring core
15-PGDH/HPGD = 15-PGDH/HPGD (Homo sapiens (Human), UniProt P15428); assay: hPGDH inhibitor screening biochemical assay; settings: Table 1, PGDH inhibitors with a 6-5 ring core; read-out: hPGDH: IC50
In short: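 10 nM recombinant 15-PGDH was preincubated with compound (10-point) for 10 min at 37° C. in 50 mM Tris-HCl pH 7.5, 0.01% Tween 20. Then 15 μM PGE2 and 0.25 mM NAD+ were added for 10 min at rt. NADH fluorescence (ex/em 340/485 nm) gave % inhibition versus 1% DMSO and a four-parameter IC50.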

Sequence of 15-PGDH/HPGD (P15428 whole entry): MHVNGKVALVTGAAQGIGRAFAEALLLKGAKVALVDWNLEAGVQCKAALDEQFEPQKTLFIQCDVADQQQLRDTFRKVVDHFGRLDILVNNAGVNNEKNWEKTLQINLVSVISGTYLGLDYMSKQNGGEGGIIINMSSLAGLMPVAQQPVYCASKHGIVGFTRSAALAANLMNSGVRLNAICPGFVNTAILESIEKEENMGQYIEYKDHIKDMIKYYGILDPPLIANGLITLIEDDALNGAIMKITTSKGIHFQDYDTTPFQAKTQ

| SMILES | AUCinf [1] [ng·h/mL] | AUClast [1] [ng·h/mL] | C0/Cmax [1] [ng/mL] | CL [1] [mL/min/kg] | T1/2 [1] [min] | Vss [1] [L/kg] | % Remaining at 45 Minutes (Mouse Liver Microsomes + NADPH) [2] [%] | AUCinf [3] [ng·h/mL] | AUClast [3] [ng·h/mL] | C0/Cmax [3] [ng/mL] | CL [3] [mL/min/kg] | T1/2 [3] [min] | Vss [3] [L/kg] | solubility (Solubility at pH 7.4) [µM] | IC50 (15-PGDH/HPGD) [nM] |
| --- | --- | --- | --- | --- | --- | --- | --- | --- | --- | --- | --- | --- | --- | --- | --- |
| O=C(c1cnc2c(ccn2-c2ccc(CO)cc2)c1)N1CCCCC1 [Formula IV] | 106.55 | 105.58 | 985.98 | 158.60 | 7.2 | 0.86 | 71 | – | – | – | – | – | – | – | – |
| COCCNC(=O)c1ccc(-n2ccc3cc(C(=O)N4CCC(F)CC4)cnc32)cc1 [Formula XI] | – | – | – | – | – | – | 84 | 131.66 | 130.44 | 663.41 | 126.59 | 9.6 | 1.39 | – | – |
| COCCNC(=O)c1ccc(-n2ccc3cc(C(=O)N4CCCCC4)cnc32)cc1 [Formula X] | – | – | – | – | – | – | 89 | 147.4 | 146.28 | 1272.79 | 113.07 | 4.2 | 0.58 | – | – |
| O=C(c1cnc2c(c1)ncn2-c1cccc(Cl)c1)N1CCCCC1 [drawing 103] | – | – | – | – | – | – | – | – | – | – | – | – | – | 21 (≈ 7.16 µg/mL) | 1.5 |
